Results as given in patent publication US20120214760A1, “TREATMENT OF URINARY TRACT INFECTIONS WITH ANTIBACTERIAL AMINOGLYCOSIDE COMPOUNDS” (Achaogen, Inc., priority 2009, published 2012).
Converted amounts (≈) assume the structure as drawn. Read-outs that look alike come from different tables or passages of the source.

Assays:
Format in all cases: cell-based
[1] = system: Enterobacter spp. (16); assay: MIC, urinary tract infection isolates
Method: (§1) Minimum inhibitory concentrations (MIC) were determined by reference Clinical and Laboratory Standards Institute (CLSI) broth microdilution methods per M7-A7 [2006]. Quality control ranges utilizing E. coli ATCC 25922, P. aeruginosa ATCC 27853 and S. aureus ATCC 29213, and interpretive criteria for comparator agents were as published in CLSI M100-S17 [2007]. Briefly, serial two-fold dilutions of the test compounds were prepared at 2× concentration in Mueller Hinton Broth. The compound dilutions were mixed in 96-well assay plates in a 1:1 ratio with bacterial inoculum. The inoculum was prepared by suspension of a colony from an agar plate that was prepared the previous day. Bacteria were suspended in sterile saline and added to each assay plate to obtain a final concentration of 5×10^5 CFU/mL. The plates were incubated at 35° C. for 20 hours in ambient air.
(§2) In order to determine the activity of representative antibacterial aminoglycoside compounds against bacterial species that commonly cause complicated urinary tract infections worldwide, isolates were collected from 47 medical centers in the U.S. and Europe (10 countries) from urine or blood culture with the source of bacteremia documented as a urinary tract infection. Strains were susceptibility tested against Example 1, gentamicin, amikacin and 10 comparators by CLSI broth microdilution. These MIC assays were conducted following the same protocol as set forth in Example 110. Pathogens (169 in total) included E. coli, Klebsiella spp., Enterobacter spp., Citrobacter spp., P. mirabilis, M. Morganii, P. aeruginosa, S. aureus and S. saprophyticus.

[2] = system: P. mirabilis (20); assay: MIC, urinary tract infection isolates
Method: as §1, §2

[3] = system: Citrobacter spp. (15); assay: MIC, urinary tract infection isolates
Method: as §1, §2

[4] = system: E. coli (21); assay: MIC, urinary tract infection isolates
Method: as §1, §2

[5] = system: S. saprophyticus (19); assay: MIC, urinary tract infection isolates; settings: S. saprophyticus
Method: as §1, §2

[6] = system: Klebsiella spp. (21); assay: MIC, urinary tract infection isolates
Method: as §1, §2

[7] = system: M. morganii (15); assay: MIC, urinary tract infection isolates
Method: as §1, §2

[8] = system: P. aeruginosa (19); assay: MIC, urinary tract infection isolates; settings: P. aeruginosa
Method: as §1, §2

[9] = system: S. aureus (23); assay: MIC, urinary tract infection isolates; settings: S. aureus
Method: as §1, §2

[10] = system: Pathogens (169 in total); assay: Susceptibility testing, all urinary tract infection isolates; settings: all 169 isolates
Method: as §1, §2

[11] = system: E. coli ATCC 25922 (AECO001); assay: MIC, CLSI broth microdilution; settings: Escherichia coli, ATCC25922; Table 5; E. coli Susceptible ATCC 25922
Summary of the method: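 Test compounds were diluted two-fold at 2× strength in Mueller Hinton Broth, then combined 1:1 with saline-suspended bacteria from an overnight agar colony to reach 5×10^5 CFU/mL. Incubation followed at 35° C. for 20 hours in ambient air, per CLSI reference methods.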

[12] = system: S. aureus ATCC 33591, MRSA; assay: MIC of thigh model strain; settings: Staphylococcus aureus
Method: as §1

[13] = system: E. coli AECO 1003, MDR; assay: MIC of thigh model strain; settings: Escherichia coli
Method: as §1

[14] = system: K. pneumoniae AKPN 1109, KPC; assay: MIC of thigh model strain; settings: Klebsiella pneumoniae; Table 5; K. pneumoniae KPC AKPN 1109
Method: as §1

[15] = system: K. pneumoniae ATCC 43816, Susceptible; assay: MIC of thigh model strain; settings: Klebsiella pneumoniae, ATCC43816; Table 5; K. pneumoniae Susceptible ATCC 43816
Method: as §1

[16] = system: S. marcescens ASMA 1030, KPC; assay: MIC of thigh model strain; settings: Serratia marcescens; Table 5; S. marcescens KPC ASMA 1030
Method: as §1

[17] = system: K. pneumoniae AKPN 1073, MDR; assay: MIC of thigh model strain; settings: Klebsiella pneumoniae; Table 5; K. pneumoniae MDR AKPN 1073
Method: as §1

[18] = system: Staphylococcal isolates; assay: Susceptibility testing, urinary tract infection isolates
Method: as §1
as §2, with “These MIC assays were conducted following the same protocol as set forth in Example 110. Pathogens (169 in total) included E. coli, Klebsiella spp., Enterobacter spp., Citrobacter spp., P. mirabilis, M. Morganii, P. aeruginosa, S. aureus and S. saprophyticus.” left out

CN[C@@H]1[C@@H](O)[C@@H](O[C@@H]2[C@@H](O)[C@H](O[C@H]3OC(CNCCO)=CC[C@H]3N)[C@@H](N)C[C@H]2NC(=O)[C@@H](O)CCN)OC[C@]1(C)O.O=S(=O)(O)O [ACHN-490]
Cumulative % inhibited at ACHN-490 MIC ([1]; at 0.5 μg/ml): 75.0% | Cumulative % inhibited at ACHN-490 MIC ([1]; at 1 μg/ml): 100.0% | Cumulative % inhibited at ACHN-490 MIC ([1]; at ≦0.25 μg/ml): 0.0% | Cumulative % inhibited at ACHN-490 MIC ([2]; at 0.5 μg/ml): 0.0% | Cumulative % inhibited at ACHN-490 MIC ([2]; at 1 μg/ml): 5.0% | Cumulative % inhibited at ACHN-490 MIC ([2]; at 2 μg/ml): 45.0% | Cumulative % inhibited at ACHN-490 MIC ([2]; at 4 μg/ml): 90.0% | Cumulative % inhibited at ACHN-490 MIC ([2]; at 8 μg/ml): 95.0% | Cumulative % inhibited at ACHN-490 MIC ([2]; at 16 μg/ml): 100.0% | Cumulative % inhibited at ACHN-490 MIC ([2]; at ≦0.25 μg/ml): 0.0% | Cumulative % inhibited at ACHN-490 MIC ([3]; at 0.5 μg/ml): 73.3% | Cumulative % inhibited at ACHN-490 MIC ([3]; at 1 μg/ml): 86.7% | Cumulative % inhibited at ACHN-490 MIC ([3]; at 2 μg/ml): 93.3% | Cumulative % inhibited at ACHN-490 MIC ([3]; at 4 μg/ml): 100.0% | Cumulative % inhibited at ACHN-490 MIC ([3]; at ≦0.25 μg/ml): 0.0% | Cumulative % inhibited at ACHN-490 MIC ([4]; at 0.5 μg/ml): 19.0% | Cumulative % inhibited at ACHN-490 MIC ([4]; at 1 μg/ml): 61.9% | Cumulative % inhibited at ACHN-490 MIC ([4]; at 2 μg/ml): 100.0% | Cumulative % inhibited at ACHN-490 MIC ([4]; at ≦0.25 μg/ml): 0.0% | Cumulative % inhibited at ACHN-490 MIC ([5]; at 0.5 μg/ml): 94.7% | Cumulative % inhibited at ACHN-490 MIC ([5]; at 1 μg/ml): 100.0% | Cumulative % inhibited at ACHN-490 MIC ([5]; at ≦0.25 μg/ml): 89.5% | Cumulative % inhibited at ACHN-490 MIC ([6]; at 0.5 μg/ml): 95.2% | Cumulative % inhibited at ACHN-490 MIC ([6]; at 1 μg/ml): 100.0% | Cumulative % inhibited at ACHN-490 MIC ([6]; at ≦0.25 μg/ml): 19.0% | Cumulative % inhibited at ACHN-490 MIC ([7]; at 0.5 μg/ml): 0.0% | Cumulative % inhibited at ACHN-490 MIC ([7]; at 1 μg/ml): 6.7% | Cumulative % inhibited at ACHN-490 MIC ([7]; at 2 μg/ml): 60.0% | Cumulative % inhibited at ACHN-490 MIC ([7]; at 4 μg/ml): 86.7% | Cumulative % inhibited at ACHN-490 MIC ([7]; at 8 μg/ml): 100.0% | Cumulative % inhibited at ACHN-490 MIC ([7]; at ≦0.25 μg/ml): 0.0% | Cumulative % inhibited at ACHN-490 MIC ([8]; at 0.5 μg/ml): 0.0% | Cumulative % inhibited at ACHN-490 MIC ([8]; at 1 μg/ml): 0.0% | Cumulative % inhibited at ACHN-490 MIC ([8]; at 2 μg/ml): 0.0% | Cumulative % inhibited at ACHN-490 MIC ([8]; at 4 μg/ml): 36.8% | Cumulative % inhibited at ACHN-490 MIC ([8]; at 8 μg/ml): 73.7% | Cumulative % inhibited at ACHN-490 MIC ([8]; at 16 μg/ml): 89.5% | Cumulative % inhibited at ACHN-490 MIC ([8]; at 32 μg/ml): 100.0% | Cumulative % inhibited at ACHN-490 MIC ([8]; at ≦0.25 μg/ml): 0.0% | Cumulative % inhibited at ACHN-490 MIC ([9]; at 0.5 μg/ml): 13.0% | Cumulative % inhibited at ACHN-490 MIC ([9]; at 1 μg/ml): 60.9% | Cumulative % inhibited at ACHN-490 MIC ([9]; at 2 μg/ml): 95.7% | Cumulative % inhibited at ACHN-490 MIC ([9]; at 4 μg/ml): 100.0% | Cumulative % inhibited at ACHN-490 MIC ([9]; at ≦0.25 μg/ml): 0.0%

NCC[C@H](O)C(=O)N[C@@H]1C[C@H](N)[C@@H](O[C@H]2O[C@H](CN)[C@@H](O)[C@H](O)[C@H]2O)[C@H](O)[C@H]1O[C@H]1O[C@H](CO)[C@@H](O)[C@H](N)[C@H]1O [Amikacin, amikacin, reference compound]
Overall susceptibility rate [10]: 94.1%

C[C@@H](O)[C@H]1C(=O)N2C(C(=O)O)=C(SCCN=CN)C[C@H]12 [IMP, imipenem, reference compound]
MIC [11]: 0.125 µg/mL (≈ 0.418 µM) | MIC ([12]; Table 5, S. aureus MRSA ATCC 33591, read-out: MIC): > 16 µg/mL | MIC [13]: 0.125 µg/mL | MIC [14]: 32 µg/mL | MIC [15]: 0.5 µg/mL | MIC [16]: > 32 µg/mL | MIC [17]: 0.25 µg/mL

CN[C@H](CC(C)C)C(=O)N[C@H]1C(=O)N[C@@H](CC(N)=O)C(=O)N[C@H]2C(=O)N[C@H]3C(=O)N[C@H](C(=O)N[C@H](C(=O)O)c4cc(O)cc(O)c4-c4cc3ccc4O)[C@H](O)c3ccc(c(Cl)c3)Oc3cc2cc(c3O[C@@H]2O[C@H](CO)[C@@H](O)[C@H](O)[C@H]2O[C@H]2C[C@](C)(N)[C@H](O)[C@H](C)O2)Oc2ccc(cc2Cl)[C@H]1O [VAN, vancomycin]
MIC [12]: 1 µg/mL

O=C1CN(/N=C/c2ccc([N+](=O)[O-])o2)C(=O)N1 [nitrofurantoin]
Staphylococcal susceptibility rate [18]: 33.3%
